Results on 16 compounds are retold here after PubChem BioAssay (NCI).

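Dose response: 5 concentrations. Exposure: 48 h. Format: 96-well plates. Endpoint: linear interpolation; highest concentration if not reached. The concentration for full growth arrest is given as TGI.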

Test systems include A498 renal; EKVX NSCLC; HOP-62 NSCLC; LOX IMVI melanoma; M14 melanoma; SNB-19 CNS; TK-10 renal; RXF 393 renal; SN12C renal.
Common to all, as to assay: NCI anticancer screen, dose series, 48 h

Turning to `COc1cc2c(cc1OC)-c1c(cnn1C1OC(COC(C)=O)C(OC(C)=O)C(OC(C)=O)C1OC(C)=O)CC2` (configuration not stated), the TGI with A498 renal, in the assay with EKVX NSCLC, with HOP-62 NSCLC, with LOX IMVI melanoma, with M14 melanoma and with SNB-19 CNS was above 100 µM each time. The compound further showed a TGI with TK-10 renal above 100 µM.

Take `O=c1c2cc(Br)ccc2oc2ccc(Br)cc12`: the TGI with A498 renal, with M14 melanoma, with RXF 393 renal, with SN12C renal, with SNB-19 CNS and in the assay with TK-10 renal was above 100 µM throughout.

Take `O=C(Nc1ccc(C(F)(F)F)cc1[N+](=O)[O-])C(=O)C(C(=O)c1ccc2ccccc2c1)C1OC(=O)c2ccccc21` (configuration not stated): the TGI is 19.7 µM with A498 renal; 21.2 µM in the assay on EKVX NSCLC; 14.8 µM in the assay on HOP-62 NSCLC; 24.1 µM with LOX IMVI melanoma; 28.1 µM in the assay on M14 melanoma; 10.1 µM with RXF 393 renal. For the same compound, the values for the TGI with SN12C renal, with SNB-19 CNS and in the assay with TK-10 renal were 33.5 µM, 22.5 µM and 35 µM, respectively.

Consider `CC1C(=O)N=C2C(=CN(Cc3ccccc3)c3ccccc32)C(=O)N1C` (configuration not stated), for which the TGI with A498 renal, in the assay with M14 melanoma, in the assay with RXF 393 renal, in the assay on SN12C renal, in the assay with SNB-19 CNS and in the assay on TK-10 renal was above 100 µM in each case.

With `O=[N+]([O-])c1ccc(Cc2nc3ccccc3s2)cc1`, the TGI in the assay with A498 renal, with EKVX NSCLC, with HOP-62 NSCLC, in the assay on M14 melanoma, in the assay on RXF 393 renal and with SN12C renal was above 100 µM in each case. Moreover, the TGI in the assay on SNB-19 CNS and in the assay with TK-10 renal was above 100 µM in each case.

Take `Cc1ccccc1C(C#N)/C(=N/NC(=O)c1cc2ccccc2cc1O)C(=O)Nc1cccc(Cl)c1` (configuration not stated): the TGI in the assay on A498 renal, in the assay on EKVX NSCLC, with HOP-62 NSCLC, in the assay on M14 melanoma, in the assay with SN12C renal and in the assay on SNB-19 CNS was above 100 µM in each case. The TGI in the assay on TK-10 renal is above 100 µM.

Consider `COc1ccccc1NC(=O)CC(=O)n1nc(C)c(N=Nc2ccccc2F)c1C`, for which the TGI with A498 renal was above 100 µM; with EKVX NSCLC it was above 100 µM; in the assay with HOP-62 NSCLC, above 83.9 µM; with LOX IMVI melanoma, above 100 µM; in the assay with M14 melanoma, above 100 µM; in the assay with RXF 393 renal, above 100 µM. The TGI in the assay with SN12C renal, with SNB-19 CNS and with TK-10 renal was above 100 µM in each case.

Regarding `CCCCOC(=O)/C(CC(=O)C=C(C)C)=N\NS(=O)(=O)c1ccc(C)cc1`, the TGI with A498 renal, in the assay with EKVX NSCLC, with HOP-62 NSCLC, in the assay with LOX IMVI melanoma, in the assay with M14 melanoma and in the assay on RXF 393 renal was above 100 µM throughout. In addition, the TGI with SN12C renal, with SNB-19 CNS and in the assay on TK-10 renal was above 100 µM throughout.

Turning to `O=C1CCC(c2nc3ccccc3o2)C(=O)N1` (configuration not stated), the TGI in the assay on A498 renal, with EKVX NSCLC, in the assay with HOP-62 NSCLC, in the assay with LOX IMVI melanoma, in the assay on M14 melanoma and with RXF 393 renal was above 100 µM throughout. Also, the TGI in the assay on SN12C renal, in the assay with SNB-19 CNS and in the assay with TK-10 renal was above 100 µM each time.

In the case of `N#CCCc1nc2ccc(Br)cc2c(=O)n1-c1ccc(O)c([N+](=O)[O-])c1`, the TGI with A498 renal was above 100 µM; in the assay with EKVX NSCLC, 74.3 µM; with HOP-62 NSCLC it was above 100 µM; in the assay on LOX IMVI melanoma, 35.5 µM; with M14 melanoma, 44.7 µM; in the assay with RXF 393 renal, 32.4 µM. Also, the TGI with SN12C renal was 38.6 µM; in the assay with TK-10 renal it was above 100 µM.

As for `COc1ccc(C2(CN(C)C)COc3cc(OC)c(OC)cc3C2=O)cc1OC` (configuration not stated), the TGI is above 100 µM in the assay with A498 renal; above 100 µM with EKVX NSCLC; above 100 µM in the assay with HOP-62 NSCLC; 31.1 µM in the assay on LOX IMVI melanoma; above 100 µM in the assay on M14 melanoma; 79.2 µM in the assay on RXF 393 renal. Further, the TGI in the assay with SN12C renal, in the assay on SNB-19 CNS and with TK-10 renal was above 100 µM throughout.

Turning to `CCc1ccccc1NC(=O)CCc1nc(=S)[nH][nH]1`, the TGI in the assay with A498 renal, in the assay with HOP-62 NSCLC, in the assay on LOX IMVI melanoma, in the assay with M14 melanoma, in the assay on RXF 393 renal and with SN12C renal was above 100 µM throughout. Also, the TGI in the assay with SNB-19 CNS and with TK-10 renal was above 100 µM each time.

Regarding `Cc1cc2c(cn1)C(=O)OCC2`, the TGI with A498 renal, in the assay on EKVX NSCLC, in the assay on HOP-62 NSCLC, in the assay with LOX IMVI melanoma, with M14 melanoma and in the assay with RXF 393 renal was above 100 µM in each case. Besides, the TGI in the assay on SN12C renal, in the assay with SNB-19 CNS and in the assay with TK-10 renal was above 100 µM each time.

Take `Cc1cc2c(C(C)C)c(O)c(O)c3coc(/c1=c1/c(C)cc4c(C(C)C)c(=O)c(=O)c5coc1c45)c32`: the TGI with A498 renal turned out to be 24.8 µM; in the assay with EKVX NSCLC it was 16.4 µM; in the assay with HOP-62 NSCLC, 23.7 µM; in the assay on LOX IMVI melanoma, 18 µM; with M14 melanoma, 25.5 µM; with RXF 393 renal, 23.1 µM. Moreover, the TGI in the assay with SN12C renal is 23.7 µM; with SNB-19 CNS it was 15.6 µM; in the assay on TK-10 renal, 27.8 µM.

In the case of `Cc1ccc2sc3cc(=O)cc(C)c-3nc2c1`, the TGI with EKVX NSCLC, in the assay on HOP-62 NSCLC, with M14 melanoma, with SN12C renal, with SNB-19 CNS and in the assay on TK-10 renal was above 100 µM each time.

Take `N=C(c1ccccc1)N1CCCCC1`: the TGI in the assay on EKVX NSCLC, with HOP-62 NSCLC, in the assay on LOX IMVI melanoma, in the assay with M14 melanoma, in the assay with RXF 393 renal and in the assay on SN12C renal was above 100 µM in each case. For the same compound, the TGI with SNB-19 CNS and in the assay on TK-10 renal was above 100 µM in each case.
